Test results: ChEMBL document CHEMBL4725278, “New coumarin/sulfocoumarin linked phenylacrylamides as selective transmembrane carbonic anhydrase inhibitors: Synthesis and in-vitro biological evaluation” (Bioorg Med Chem, 2020)
pKi: −log10 of the molar value.

Assays:
Carbonic anhydrase 9 = Carbonic anhydrase 9 (Homo sapiens, UniProt Q16790); assay: Inhibition of recombinant human carbonic anhydrase 9 assessed as inhibition constant preincubated with enzyme for 10 mins by phenol red dye based stopped flow CO2 hydration assay
Carbonic anhydrase 2 = Carbonic anhydrase 2 (Homo sapiens, UniProt P00918); assay: Inhibition of recombinant human carbonic anhydrase 2 assessed as inhibition constant preincubated with enzyme for 10 mins by phenol red dye based stopped flow CO2 hydration assay
Carbonic anhydrase 12 = Carbonic anhydrase 12 (Homo sapiens, UniProt O43570); assay: Inhibition of recombinant human carbonic anhydrase 12 assessed as inhibition constant preincubated with enzyme for 10 mins by phenol red dye based stopped flow CO2 hydration assay
Chain of Carbonic anhydrase 12 (O43570 whole entry): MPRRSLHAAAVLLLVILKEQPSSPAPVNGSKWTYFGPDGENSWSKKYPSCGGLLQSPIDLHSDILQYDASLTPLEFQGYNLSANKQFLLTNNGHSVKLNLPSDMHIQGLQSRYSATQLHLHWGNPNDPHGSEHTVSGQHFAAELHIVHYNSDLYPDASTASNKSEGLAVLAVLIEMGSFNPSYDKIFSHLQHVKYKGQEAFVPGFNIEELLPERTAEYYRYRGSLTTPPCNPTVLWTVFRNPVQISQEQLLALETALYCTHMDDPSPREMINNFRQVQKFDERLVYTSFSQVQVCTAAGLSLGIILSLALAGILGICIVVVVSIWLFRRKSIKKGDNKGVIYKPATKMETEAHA

Carbonic anhydrase 1 = Carbonic anhydrase 1 (Homo sapiens, UniProt P00915); assay: Inhibition of recombinant human carbonic anhydrase 1 assessed as inhibition constant preincubated with enzyme for 10 mins by phenol red dye based stopped flow CO2 hydration assay
Chain of Carbonic anhydrase 1 (P00915 whole entry): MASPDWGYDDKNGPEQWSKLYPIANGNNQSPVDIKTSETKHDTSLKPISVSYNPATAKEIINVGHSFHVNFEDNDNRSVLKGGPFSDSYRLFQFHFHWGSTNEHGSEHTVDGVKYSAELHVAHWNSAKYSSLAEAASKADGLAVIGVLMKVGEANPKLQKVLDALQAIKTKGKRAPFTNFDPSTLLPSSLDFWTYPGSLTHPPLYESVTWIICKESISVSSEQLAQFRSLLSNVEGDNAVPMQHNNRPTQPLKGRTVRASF

SMILES | pKi (Carbonic anhydrase 9) | pKi (Carbonic anhydrase 2) | pKi (Carbonic anhydrase 12) | pKi (Carbonic anhydrase 1)
O=C(/C=C/c1ccc(C(F)(F)F)cc1)Nc1ccc2oc(=O)ccc2c1 | 7.04 | < 5.00 | 6.63 | < 5.00
COc1ccc(/C=C/C(=O)Nc2ccc3oc(=O)ccc3c2)cc1OC | 6.49 | < 5.00 | 7.81 | < 5.00
COc1cc(/C=C/C(=O)Nc2ccc3oc(=O)ccc3c2)cc(OC)c1OC | 6.80 | < 5.00 | 6.83 | < 5.00
Cc1cc(=O)oc2cc(NC(=O)NS(=O)(=O)c3ccc(F)cc3)ccc12 | 7.69 | – | 8.74 | –
O=C(/C=C/c1cccc(F)c1)Nc1ccc2oc(=O)ccc2c1 | 7.37 | < 5.00 | 6.39 | < 5.00
O=C(/C=C/c1cccc(C(F)(F)F)c1)Nc1ccc2c(c1)C=CS(=O)(=O)O2 | 7.18 | < 5.00 | 6.32 | < 5.00
O=C(/C=C/c1ccccc1OC(F)F)Nc1ccc2oc(=O)ccc2c1 | 6.42 | < 5.00 | 6.40 | < 5.00
COc1ccc(/C=C/C(=O)Nc2ccc3c(c2)C=CS(=O)(=O)O3)c(F)c1 | 7.09 | < 5.00 | 6.40 | < 5.00
O=C(/C=C/c1cc(Cl)cc(Cl)c1)Nc1ccc2oc(=O)ccc2c1 | 6.52 | < 5.00 | 6.15 | < 5.00
Cc1cc(=O)oc2cc(NC(=O)/C=C/c3cccc(F)c3)ccc12 | 6.19 | < 5.00 | 6.27 | < 5.00
COc1ccc(/C=C/C(=O)Nc2ccc3oc(=O)ccc3c2)cc1 | 6.05 | < 5.00 | 6.37 | < 5.00
COc1ccc(/C=C/C(=O)Nc2ccc3oc(=O)ccc3c2)c(F)c1 | 6.33 | < 5.00 | 6.86 | < 5.00
O=C(/C=C/c1ccc(Cl)cc1)Nc1ccc2oc(=O)ccc2c1 | 7.05 | < 5.00 | 6.46 | < 5.00
N#Cc1ccc(/C=C/C(=O)Nc2ccc3c(c2)C=CS(=O)(=O)O3)cc1 | 7.40 | < 5.00 | 6.28 | < 5.00
O=C(/C=C/c1ccc(F)c(F)c1)Nc1ccc2oc(=O)ccc2c1 | 6.47 | < 5.00 | 6.69 | < 5.00
COc1ccc(/C=C/C(=O)Nc2ccc3oc(=O)ccc3c2)c(OC)c1 | 7.06 | < 5.00 | 6.35 | < 5.00
O=C(/C=C/c1ccc(F)cc1)Nc1ccc2oc(=O)ccc2c1 | 7.39 | < 5.00 | 6.58 | < 5.00

SMILES | pKi (Carbonic anhydrase 9) | pKi (Carbonic anhydrase 2) | pKi (Carbonic anhydrase 12) | pKi (Carbonic anhydrase 1)
O=C(/C=C/c1cccc([N+](=O)[O-])c1)Nc1ccc2oc(=O)ccc2c1 | 5.14 | < 5.00 | 6.25 | < 5.00
COc1cc(/C=C/C(=O)Nc2ccc3c(C)cc(=O)oc3c2)cc(OC)c1OC | 6.19 | < 5.00 | 6.20 | < 5.00
Cc1cc(=O)oc2cc(NC(=O)/C=C/c3ccccc3)ccc12 | 6.29 | < 5.00 | 6.19 | < 5.00
O=C(/C=C/c1cccc(C(F)(F)F)c1)Nc1ccc2oc(=O)ccc2c1 | 7.06 | < 5.00 | 6.66 | < 5.00
Cc1cc(=O)oc2cc(NC(=O)/C=C/c3ccc(F)c(F)c3)ccc12 | 6.11 | < 5.00 | 6.16 | < 5.00
COc1cc(/C=C/C(=O)Nc2ccc3c(c2)C=CS(=O)(=O)O3)cc(OC)c1OC | 6.27 | < 5.00 | 6.68 | < 5.00
O=C(/C=C/c1ccccc1OC(F)F)Nc1ccc2c(c1)C=CS(=O)(=O)O2 | 7.03 | < 5.00 | 6.46 | < 5.00
N#Cc1ccc(/C=C/C(=O)Nc2ccc3oc(=O)ccc3c2)cc1 | 6.06 | < 5.00 | 6.12 | < 5.00
Cc1cc(=O)oc2cc(NC(=O)/C=C/c3ccc(C#N)cc3)ccc12 | 6.07 | < 5.00 | 6.24 | < 5.00
O=C(/C=C/c1ccccc1)Nc1ccc2oc(=O)ccc2c1 | 6.88 | < 5.00 | 6.08 | < 5.00
NS(=O)(=O)c1ccc(NC(=O)/C=C/c2ccccc2OC(F)F)cc1 | 8.22 | – | – | –
Cc1cc(=O)oc2cc(NC(=O)/C=C/c3ccccc3OC(F)F)ccc12 | 6.31 | < 5.00 | 6.25 | < 5.00
COc1ccc(/C=C/C(=O)Nc2ccc3c(C)cc(=O)oc3c2)c(F)c1 | 6.09 | < 5.00 | 6.07 | < 5.00
O=C(/C=C/c1ccc(F)cc1)Nc1ccc2c(c1)C=CS(=O)(=O)O2 | 6.29 | < 5.00 | 6.30 | < 5.00
COc1ccc(/C=C/C(=O)Nc2ccc3c(C)cc(=O)oc3c2)cc1OC | 5.52 | < 5.00 | 6.19 | < 5.00
O=C(/C=C/c1ccc(F)c(F)c1)Nc1ccc2c(c1)C=CS(=O)(=O)O2 | 6.14 | < 5.00 | 6.25 | < 5.00
Cc1cc(=O)oc2cc(NC(=O)/C=C/c3ccc(F)cc3)ccc12 | 6.17 | < 5.00 | 6.22 | < 5.00
